Assay results reported in patent US20080311657A1, “Killing Human Lymphoma and Leukemia Cancer Cells and Tcr-Activated Normal Human Cells By Dopamine D1r Agonists” (priority 2005, published 2008).

What was measured:
Experiment in all cases: Number of living cells counted by flow cytometry (FACSort) after D1R agonist
Type in all cases: cell-based
Conditions in all cases: 10^−3M-10^−6M, 3 days
[1] = tested on: Human T-cell leukemia (Jurkat) cells
Method: Afterwards, the microtiter plates were placed in an incubator (37° C., humidified incubator, 5% CO2) for 3 days. Then, the number of living cells was evaluated by flow cytometry (the cells were counted by FACsort for a fixed time length of 1 min, in which 100 microliter of each sample was tested). Of note, A 77636 hydrochloride is an orally-active D1R agonist, according to the manufacturer (Tocris).
(§1) Afterwards, the microtiter plates were placed in an incubator (37° C., humidified incubator, 5% CO2) for 3 days. Then, the number of living cells was evaluated by flow cytometry (the cells were counted by FACsort for a fixed time length of 1 min, in which 100 microliter of each sample was tested).
(§2) The experiment was designed to test the effect of exposing the cells to the D1R agonist for 1 min, 15 min, 1 hr or 72 hr. Thus, 1 min, or 15 min or 1 hr after the addition of the D1R agonist, the corresponding cells were transferred into tubes, centrifuged (1000 rpm for 10 min); and the supernatant was removed. […] Thus, its medium was not replaced, and these cells and remained as such in the incubator for 72 hr. At the end of the 72 hr incubation, the number of living cells was evaluated by flow cytometry (the cells were counted by FACsort for a fixed time length of 1 min, in which 100 microliter of each sample was tested).
(§3) Cell viability was tested afterwards.
(§4) For this purpose, the Jurkat T-cell leukemia line, the HuT-78 human T-lymphoma (cutaneous “Sezary” T-lymphoma) line, and the K-562 human Chronic-Myeloid Leukemia (CML) and Daudi Human B-lymphoma (Burkitt's lymphoma) lines were seeded in tissue culture wells (0.5 million cells/0.5 ml/well).
(§5) Cell survival/death was evaluated 3 days later by counting the number of living cells, using flow cytometry.

[2] = tested on: Human cutaneous Sezary T-lymphoma cells (HuT-78)
Method: (§6) Human cutaneous Sezary T-lymphoma cells (HUT-78) were seeded in 96 well plates (0.5 ml per well of 0.5 million cells/ml) and A 77636 hydrochloride was added and diluted 1:00 into the wells at starting concentrations of 10^−1M-10^−4M, so that the final concentration range tested was 10^−3M-10^−6M. Afterwards, the microtiter plates were placed in an incubator (37° C., humidified incubator, 5% CO2) for 3 days. Then, the number of living cells was evaluated by flow cytometry (the cells were counted by FACsort for a fixed time length of 1 min, in which 100 microliter of each sample was tested).
as §6, with “68930” for “77636”
as §6, with “SKF 38393 hydrobromide” for “A 77636 hydrochloride”
Cell viability was tested afterwards. […]
as §5

[3] = tested on: Human chronic myelogenous leukemia cells (CML) (K-562)
Method: as §6, with “chronic myelogenous leukemia” for “cutaneous Sezary T-lymphoma”, “(CML) (K-562)” for “(HUT-78)”
as §6, with “chronic myelogenous leukemia” for “cutaneous Sezary T-lymphoma”, “(CML) (K-562)” for “(HUT-78)”, “68930” for “77636”
as §6, with “chronic myelogenous leukemia” for “cutaneous Sezary T-lymphoma”, “(CML) (K-562)” for “(HUT-78)”, “SKF 38393 hydrobromide” for “A 77636 hydrochloride”
as §2, with “Human chronic myelogenous leukemia cells (CML) (K-562) were seeded in 96 well plates (0.5 ml per well of 0.5 million cells/ml) and A 77636 hydrochloride was added and diluted 1:00 into the wells, at a fixed starting concentration of 10^−2M, so that the final concentration tested was 10^−4M. The” for “The”, “min),” for “min);”
as §3, §4, §5
(§7) The effect of dopamine itself (that can of course activate all its D1R-5 receptors) was also tested. All of these molecules were tested at a similar concentration (10^−4 M). […] The specificity and restriction of the effect to the D1R is also seen in Tables 7 and 8.

[4] = tested on: Human Burkitt's B-lymphoma cells (Daudi)
Method: as §6, with “Burkitt's B-lymphoma” for “cutaneous Sezary T-lymphoma”, “(Daudi)” for “(HUT-78)”, “Afterwards, the microtiter plates were placed in an incubator (37° C., humidified incubator, 5% CO2) for 3 days.” left out
as §6, with “Burkitt's B-lymphoma” for “cutaneous Sezary T-lymphoma”, “(Daudi)” for “(HUT-78)”, “68930” for “77636”, “Afterwards, the microtiter plates were placed in an incubator (37° C., humidified incubator, 5% CO2) for 3 days.” left out
[…] Then, the number of living cells was evaluated by flow cytometry (the cells were counted by FACsort for a fixed time length of 1 min, in which 100 microliter of each sample was tested).
as §3, §7

[5] = tested on: Human Burkitt's B-cell lymphoma (Raji) cells
Method: as §1, §3

[6] = tested on: resting normal human T-cells
Method: as §1
FIGS. 31A and B are graphs showing that A 77636 hydrochloride kills much more TCR-activated (FIG. 31B) than resting normal (FIG. 31A) human T-cells. […] The cells were then transferred to the incubator for 72 hr incubation. At the end of the 72 hr incubation, the number of living cells in each well was evaluated by flow cytometry (the cells were counted by FACsort for a fixed time length of 1 min, in which 100 microliter of each sample was tested).
as §3

| Structure (SMILES) | Cell death by number of living cells (FIGS. 10-12), in words [1] | Cell death by number of living cells (FIGS. 13-15), in words [2] | Cell death by number of living cells (FIGS. 22-24), in words [3] | Cell death by number of living cells (FIGS. 16-18), in words [4] | Cell death by number of living cells (FIGS. 19-21), in words [5] | Killing effect by number of living cells (FIGS. 25-27), in words [6] |
| --- | --- | --- | --- | --- | --- | --- |
| Cl.NC[C@@H]1O[C@H](c2ccccc2)Cc2c1ccc(O)c2O (racemic) [A 68930 hydrochloride, cis-(±)-1-(aminomethyl)-3,4-dihydro-3-phenyl-1H-2-benzopyran-5,6-diol hydrochloride] | induces marked cell death | induces marked cell death | induces marked cell death | induces marked cell death | induces marked cell death | significantly milder killing effect |
| Br.Oc1cc2c(cc1O)C(c1ccccc1)CNCC2 (racemic) [SKF 38393 hydrobromide, (±)-1-phenyl-2,3,4,5-tetrahydro-(1H)-3-benzazepine-7,8-diol hydrobromide] | induces marked cell death | induces marked cell death | induces marked cell death | induces marked cell death | induces marked cell death | significantly milder killing effect |
